According to patent US7741327B2 (Hoffmann-La Roche Inc., priority 2008, dated 2010):

Target: T1, Recombinant human liver GK1 (GST-GK) (Homo sapiens, UniProt P35557)
T1 construct: made in house; host or cells: E. coli
T1 sequence (P35557 1-466 isoform P35557-2): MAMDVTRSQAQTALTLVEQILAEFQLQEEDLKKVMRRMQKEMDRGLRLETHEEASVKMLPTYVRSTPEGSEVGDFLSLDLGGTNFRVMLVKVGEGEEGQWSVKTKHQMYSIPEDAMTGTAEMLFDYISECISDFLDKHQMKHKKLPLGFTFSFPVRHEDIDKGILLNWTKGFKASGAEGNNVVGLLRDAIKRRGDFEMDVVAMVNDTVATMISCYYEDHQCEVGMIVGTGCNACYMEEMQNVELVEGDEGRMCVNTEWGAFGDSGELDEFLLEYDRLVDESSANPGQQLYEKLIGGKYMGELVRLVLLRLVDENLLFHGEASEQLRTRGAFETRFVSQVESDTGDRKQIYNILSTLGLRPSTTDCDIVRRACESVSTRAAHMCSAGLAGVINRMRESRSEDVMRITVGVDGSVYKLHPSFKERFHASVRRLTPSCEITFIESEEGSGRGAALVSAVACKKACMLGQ
Assay: In vitro glucokinase activity (G6PDH-coupled NADH assay)
Format: biochemical
Details: 30° C., 5 mM D-glucose, 10% DMSO
Protocol: Glucokinase In Vitro Assay Protocol: Glucokinase (GK) was assayed by coupling the production of glucose-6-phosphate to the generation of NADH with glucose-6-phosphate dehydrogenase (G6PDH, 0.75-1 kunits/mg; Boehringer Mannheim, Indianapolis, Ind.) from Leuconostoc mesenteroides as the coupling enzyme (Scheme 2).
Recombinant human liver GK1 was expressed in E. coli as a glutathione S-transferase fusion protein (GST-GK) [Liang et al, 1995] and was purified by chromatography over a glutathione-Sepharose 4B affinity column using the procedure provided by the manufacturer (Amersham Pharmacia Biotech, Piscataway, N.J.).
The assay was conducted at 30° C. in a flat bottom 96-well tissue culture plate from Costar (Cambridge, Mass.) with a final incubation volume of 120 μL. The incubation reaction contained the following: 25 mM Hepes buffer (pH 7.1), 25 mM KCl, 5 mM D-glucose, 1 mM ATP, 1.8 mM NAD, 2 mM MgCl2, 1 μM sorbitol-6-phosphate, 1 mM dithiothreitol, test drug or 10% dimethylsulfoxide, ˜7 units/ml G6PDH, and GK (see below). All organic reagents were >98% pure and were from Boehringer Mannheim with the exceptions of D-glucose and Hepes which were from Sigma Chemical Co, St Louis, Mo. Test compounds were dissolved in dimethylsulfoxide and were added to the incubation reaction minus GST-GK in a volume of 12 μL to yield a final dimethylsulfoxide concentration of 10%. This mix was pre-incubated in the temperature controlled chamber of a SPECTRAmax 250 microplate spectrophotometer (Molecular Devices Corporation, Sunnyvale, Calif.) for 10 min to allow temperature equilibrium and then the reaction was started by the addition of 20 μL GST-GK.
After addition of enzyme, the increase in optical density (OD) at 340 nm was monitored spectrophotometrically to determine the rate of change (OD340 per min). The GK activity (OD340/min) in control wells (10% DMSO minus GK activators) was compared with the activity in wells containing test GK activators, and the concentration of activator that produced a 50% increase in the activity of GK, i.e., the SC1.5, was calculated. The table below provides the in vitro glucokinase activity for the compounds in the Examples: […]

| SC1.5 (concentration of activator that produced a 50% increase in the activity of GK) | Structure (SMILES) |
| --- | --- |
| 1.872 µM | CC(C)OC1=CC(=O)N([C@@H](CC2CCCCC2)C(=O)Nc2ccn(CC(C)(C)O)n2)C1 [Example 25, (S)-3-Cyclohexyl-N-[1-(2-hydroxy-2-methyl-propyl)-1H-pyrazol-3-yl]-2-(4-isopropoxy-2-oxo-2,5-dihydro-pyrrol-1-yl)-propionamide] |
| 0.033 µM | COc1ccccc1OC1=CC(=O)N([C@@H](CC2CCCCC2)C(=O)Nc2ccn(C)n2)C1 [Example 29, (S)-3-Cyclohexyl-N-(1-methyl-1H-pyrazol-3-yl)-2-[4-(2-methoxy-phenoxy)-2-oxo-2,5-dihydro-pyrrol-1-yl]-propionamide] |
| 0.031 µM | COc1ccccc1OC1=CC(=O)N([C@@H](CC2CCCCC2)C(=O)Nc2ccn(C[C@H](O)CO)n2)C1 [Example 30, (S)-3-Cyclohexyl-N-[1-((S)-2,3-dihydroxy-propyl)-1H-pyrazol-3-yl]-2-[4-(2-methoxy-phenoxy)-2-oxo-2,5-dihydro-pyrrol-1-yl]-propionamide] |
| 0.035 µM | CC(C)(O)Cn1ccc(NC(=O)[C@H](CC2CCCCC2)N2CC(Oc3cccc4c3OCCO4)=CC2=O)n1 [Example 33, (S)-3-Cyclohexyl-2-[4-(2,3-dihydro-benzo[1,4]dioxin-5-yloxy)-2-oxo-2,5-dihydro-pyrrol-1-yl]-N-[1-(2-hydroxy-2-methyl-propyl)-1H-pyrazol-3-yl]-propionamide] |
| 0.217 µM | COc1ccccc1OC1=CC(=O)N(C(CC2CCOCC2)C(=O)Nc2ccn(CC(C)(C)O)n2)C1 (stereo not shown) [Example 34, N-[1-(2-hydroxy-2-methyl-propyl)-1H-pyrazol-3-yl]-2-[4-(2-methoxy-phenoxy)-2-oxo-2,5-dihydro-pyrrol-1-yl]-3-(tetrahydropyran-4-yl)-propionamide] |

More lines, now with the values behind:

| Structure (SMILES) | SC1.5 (concentration of activator that produced a 50% increase in the activity of GK) |
| --- | --- |
| CC(C)OCCn1ccc(NC(=O)[C@H](CC2CCCC2)N2CC(OC3CCCC3)=CC2=O)n1 [Example 20, (S)-3-Cyclopentyl-N-[1-(2-isopropoxy-ethyl)-1H-pyrazol-3-yl]-2-(4-cyclopentyloxy-2-oxo-2,5-dihydro-pyrrol-1-yl)-propionamide] | 1.388 µM |
| COC(C)(C)Cn1ccc(NC(=O)[C@H](CC2CCCC2)N2CC(OC(C)C)=CC2=O)n1 [Example 22, (S)-3-Cyclopentyl-N-[1-(2-methoxy-2-methyl-propyl)-1H-pyrazol-3-yl]-2-(4-isopropoxy-2-oxo-2,5-dihydro-pyrrol-1-yl)-propionamide] | 1.048 µM |
| CC(C)OC1=CC(=O)N([C@@H](CC2CCCC2)C(=O)Nc2cnccn2)C1 [Example 23, (S)-3-Cyclopentyl-N-(pyrazin-2-yl)-2-(4-isopropoxy-2-oxo-2,5-dihydro-pyrrol-1-yl)-propionamide] | 5.216 µM |
| CCCOC1=CC(=O)N([C@@H](CC2CCCCC2)C(=O)Nc2ccn(CC(C)(C)O)n2)C1 [Example 24, (S)-3-Cyclohexyl-N-[1-(2-hydroxy-2-methyl-propyl)-1H-pyrazol-3-yl]-2-(2-oxo-4-propoxy-2,5-dihydro-pyrrol-1-yl)-propionamide] | 5.251 µM |
| COc1ccccc1OC1=CC(=O)N(C(COC(C)(C)C)C(=O)Nc2ccn(CC(C)(C)O)n2)C1 (stereo not shown) [Example 35, 3-t-Butoxy-N-[1-(2-hydroxy-2-methyl-propyl)-1H-pyrazol-3-yl]-2-[4-(2-methoxy-phenoxy)-2-oxo-2,5-dihydro-pyrrol-1-yl]-propionamide] | 9.491 µM |
